Molecular target: T1, recombinant human MetAP2 (Homo sapiens, UniProt P50579)
T1 construct: Flag; made in house; host or cells: Sf9 insect cells
Assay: Inhibition of recombinant human MetAP2 activity (Amplex red fluorescence assay)
Assay type: biochemical
Settings: manganese Flag-MetAP2, 0.75 mM Methionine-Alanine-Serine substrate, 30 minutes at 25° C., pH 7.5, 1% DMSO
Method: Compounds are tested for their capacity to inhibit recombinant human MetAP2 activity using the following assay.
Human recombinant Flag-MetAP2 expressed in Sf9 cells followed by affinity purification and EDTA treatment to remove endogenous active site cation is dialysed against MnCl2 to produce the manganese enzyme used in the assay. The assay is carried out for 30 minutes at 25° C. in 50 mM HEPES buffer containing 100 mM NaCl, pH 7.5 the presence of 0.75 mM Methionine-Alanine-Serine (MAS) substrate and 50 μg/ml amino acid oxidase using a dilution of purified MetAP2 giving approximately 50,000 RFU control activity. Cleavage of the substrate by MetAP2 and oxidation of free methionine by amino acid oxidase is detected and quantified using fluorescence generated by Amplex red (10-acetyl-3,7-dihydroxyphenoxazine) in combination with horseradish peroxidase which detects H2O2 released during the oxidation step. The fluorescent signal is detected using a multiwell fluorimeter. Compounds are diluted in DMSO prior to addition to assay buffer, the final DMSO concentration in the assay being 1%.
The IC50 is defined as the concentration at which a given compound achieves 50% inhibition of control. IC50 values are calculated using the XLfit software package (version 2.0.5).

T1 sequence (P50579 whole entry): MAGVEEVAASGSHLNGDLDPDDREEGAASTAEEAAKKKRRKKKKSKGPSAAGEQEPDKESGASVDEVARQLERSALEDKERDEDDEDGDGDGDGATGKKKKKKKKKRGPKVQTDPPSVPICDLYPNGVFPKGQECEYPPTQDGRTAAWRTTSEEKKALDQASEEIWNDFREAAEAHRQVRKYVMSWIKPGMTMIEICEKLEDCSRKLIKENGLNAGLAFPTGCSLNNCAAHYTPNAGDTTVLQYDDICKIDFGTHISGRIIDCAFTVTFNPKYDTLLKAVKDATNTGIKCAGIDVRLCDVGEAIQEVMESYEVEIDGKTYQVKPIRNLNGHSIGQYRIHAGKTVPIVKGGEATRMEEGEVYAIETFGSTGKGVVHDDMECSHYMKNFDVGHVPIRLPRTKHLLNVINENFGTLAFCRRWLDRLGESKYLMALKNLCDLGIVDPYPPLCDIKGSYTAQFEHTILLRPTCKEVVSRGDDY

Row | IC50 [nM] | SMILES
1 | < 200 | CCN(CC)C/C=C\c1ccccc1S(=O)(=O)Cc1ccc(-c2ccoc2)c(OC)c1C(=O)O [(Z)-6-((2-(3-(Diethylamino)prop-1-enyl)benzenesulfonyl)methyl)-3-(furan-3-yl)-2-methoxybenzoic acid]
2 | < 200 | CCN(CC)C/C=C\c1cc(F)ccc1S(=O)(=O)Cc1ccc(-c2ccoc2)c(OC)c1C(=O)O [(Z)-6-((2-(3-(Diethylamino)prop-1-enyl)-4-fluorophenylsulfonyl)methyl)-3-(furan-3-yl)-2-methoxybenzoic acid]
3 | < 200 | COc1c(-c2ccoc2)ccc(CS(=O)(=O)c2cccc(F)c2)c1C(=O)O [6-(3-Fluorobenzenesulphonylmethyl)-3-(furan-3-yl)-2-methoxybenzoic acid]
4 | > 2000 | CCc1ccc(CS(=O)(=O)c2ccccc2)c(C(=O)O)c1-c1ccn(C)n1 [6-Benzenesulphonylmethyl-3-ethyl-2-(1-methyl-1H-pyrazol-3-yl)-benzoic acid]
5 | > 2000 | COc1c(-n2cccn2)ccc(CS(=O)(=O)c2ccccc2)c1C(=O)O [6-(Benzenesulphonylmethyl)-2-methoxy-3-(pyrazol-1-yl)benzoic acid]
6 | > 2000 | CCc1ccc(CS(=O)(=O)c2ccccc2)c(C(=O)O)c1-c1ccnn1C [6-(Benzenesulphonylmethyl)-3-ethyl-2-(2-methyl-2H-pyrazol-3-yl)-benzoic acid]
7 | 200 to 2000 | COc1c(-c2ccoc2)ccc(CS(=O)(=O)N2CCCC2)c1C(=O)O [3-(Furan-3-yl)-2-methoxy-6-(pyrrolidin-1-ylsulphonylmethyl)-benzoic acid]
8 | 200 to 2000 | O=C(O)c1cc(-c2ccoc2)ccc1CS(=O)(=O)c1ccccc1 [2-(Benzenesulphonylmethyl)-5-(furan-3-yl)benzoic acid]

From patent publication US9067905B2, “Sulphone compounds and methods of making and using same” (Zafgen, Inc., priority 2009, dated 2015)
